Reference: PubChem BioAssay (NCI)
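A five-concentration, 48-hour dose response in 96-well plates underlies each endpoint, interpolated linearly between surrounding concentrations. TGI: concentration producing complete growth inhibition.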

Tested on: P388/ADR leukemia
Assay: NCI tumour cell line growth inhibition, 48 h

Work on `O=c1n(CC2CO2)c(=O)n(CC2CO2)c(=O)n1CC1CO1` (stereo unspecified) yielded a TGI of 275 µM.
